Test results: patent US9278940B2, “Cyclic amines as bromodomain inhibitors” (Zenith Epigenetics Corp., priority 2012, dated 2016)
Structures can show the parent of a compound that is named as a salt.

Tests used:
Human AML MV-4-11 cells = test: Inhibition of cell proliferation in MV4-11 cells; type: cell-based; parameters: key: Active: Compounds with an IC50 value less than 30 μM are deemed to be active.; Not Active: Compounds with an IC50 value less than 30 μM are deemed to be active; details: 72 hours
Procedure, shortened: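 Exponentially growing MV-4-11 cells were treated immediately with two-fold compound dilutions from 30 µM to 0.2 µM in triplicate for 72 h at 37 °C. Viability was read by MTS (CellTiter Aqueous One) absorbance at 490 nm after 3-4 h; % proliferation vs DMSO gave IC50.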

IL-6 and IL-17 cytokines = test: In vivo efficacy in mouse endotoxemia model; details: C57/Bl6 mice, oral 75 mg/kg, inhibition of IL-6 and IL-17 post 4 hour LPS challenge 0.5 mg/kg intraperitoneally
Experimental: Sub lethal doses of Endotoxin (E. Coli bacterial lipopolysaccharide) were administered to animals to produce a generalized inflammatory response which was monitored by increases in secreted cytokines. Compounds were administered to C57/Bl6 mice orally at 75 mg/kg dose to evaluate inhibition in IL-6 and IL-17 cytokines post 4 hour challenge with Lipopolysaccharide (LPS) at 0.5 mg/kg dose intraperitoneally.

[1] = In vivo efficacy in rat collagen induced arthritis; details: female Lewis rats, collagen Day 1 and 7, dosed Day 11 to Day 17
Experimental: Rat collagen-induced arthritis is an experimental model of polyarthritis that has been widely used for preclinical testing of numerous anti-arthritic agents. Following administration of collagen, this model establishes a measurable polyarticular inflammation, marked cartilage destruction in association with pannus formation and mild to moderate bone resorption and periosteal bone proliferation. In this model, collagen was administered to female Lewis strain of rats on Day 1 and 7 of study and dosed with compounds from Day 11 to Day 17. Test compounds were evaluated to assess the potential to inhibit the inflammation (including paw swelling), cartilage destruction and bone resorption in arthritic rats, using a model in which the treatment is administered after the disease has been established.

[2] = In vivo efficacy in experimental autoimmune encephalomyelitis (EAE) model of MS; parameters: species or system mouse; details: female C57Bl/6 mice, MOG35-55/CFA and pertussis toxin, 28 day preventative model
Excerpt: Experimental autoimmune encephalomyelitis (EAE) is a T-cell-mediated autoimmune disease of the CNS which shares many clinical and histopathological features with human multiple sclerosis (MS). EAE is the most commonly used animal model of MS. […] Cytokines IL-23, IL-6 and IL-17, which are either critical for Th1 and Th17 differentiation or produced by these T cells, play a critical and non-redundant role in EAE development. Therefore, drugs targeting production of these cytokines are likely to have therapeutic potential in treatment of MS.
This study was conducted to assess the potential anti-inflammatory effect of test compounds to inhibit the inflammation and clinical EAE scores of a 28 day preventative mouse model. In this model, EAE was induced by MOG35-55/CFA immunization and pertussis toxin injection in female C57Bl/6 mice.

MV4-11 cells = test: In vivo efficacy in acute myeloid leukemia xenograft model using MV4-11 cells; parameters: species or system mouse; details: athymic nude mice, MV4-11 xenograft, oral 75 mg/kg b.i.d and 120 mg/kg b.i.d, tumor growth inhibition vs vehicle
Experimental: MV4-11 cells (ATCC) were grown under standard cell culture conditions and (NCr) nu/nu fisol strain of female mice age 6-7 weeks were injected 5e^6 cells/animal in 100 μl PBS+100 μl Matrigel in lower left abdominal flank. Approximately by day 18 after MV4-11 cells injection, mice were randomized based on tumor volume (L×W×H)/2) of average ^˜120 mm^3. Mice were dosed orally with compound at 75 mg/kg b.i.d and 120 mg/kg b.i.d in EA006 formulation at 10 mL/kg body weight dose volume. Tumor measurements were taken with electronic micro caliper and body weights measured on alternate days beginning from dosing period. The average tumor volumes, percent Tumor Growth Inhibition (TGI) and % change in body weights were compared relative to Vehicle control animals. The means, statistical analysis and the comparison between groups were calculated using student's t-test in Excel.

hMCP-1 mRNA = test: Inhibition of hMCP-1 mRNA transcription in human PBMCs; type: cell-based; parameters: key: Active: Compounds with an IC50 value less than 30 μM are deemed to be active.; Not Active: Compounds with an IC50 value less than 30 μM are deemed to be active; details: Human Peripheral Blood Mononuclear Cells, 3 h
Experimental: In this example, hMCP-1 mRNA in human peripheral blood mononuclear cells was quantitated to measure the transcriptional inhibition of hMCP-1 when treated with a compound of the present disclosure.
Human Peripheral Blood Mononuclear Cells were plated (1.0×10^5 cells per well) in a 96-well plate in 45 μL RPMI-1640 containing 10% FBS and penicillin/streptomycin. The cells were treated with the test compound (45 μL at 2× concentration), and then the cells were incubated at 37° C. for 3 h before the cells were harvested. At time of harvest, cells were transferred to V-bottom plates and centrifuged at 800 rpm for 5 minutes. Spent media was removed and cell lysis solution (70 μL) was added the cells in each well and incubated for 5-10 min at room temperature, to allow for complete cell lysis and detachment. mRNA was then prepared using the “mRNA Catcher PLUS plate” (Invitrogen), according to the protocol supplied. After the last wash, as much wash buffer as possible was aspirated without allowing the wells to dry. […]
The eluted mRNA isolated was then used in a one-step quantitative real-time PCR reaction, using components of the Ultra Sense Kit together with Applied Biosystems primer-probe mixes. Real-time PCR data was analyzed, normalizing the Ct values for hMCP-1 to an internal control, prior to determining the fold induction of each unknown sample, relative to the control.

COc1cc(OC)c2c(=O)[nH]c(-c3cccc(N4CCN(C(C)C)CC4)n3)nc2c1 [Example 17, 2-(6-(4-Isopropylpiperazin-1-yl)pyridin-2-yl)-5,7-dimethoxyquinazolin-4(3H)-one Hydrochloride]
Active: cell proliferation activity (IC50 < 30 μM) (Human AML MV-4-11 cells) | In vivo activity (IL-6 and IL-17 cytokines) | In vivo activity [1] | In vivo activity [2] | In vivo activity (MV4-11 cells) | MCP-1 activity (IC50 < 30 μM) (hMCP-1 mRNA)
